Legend:
[1] = test system: transplanted tumor of HT-29 cells; test: HT-29 transplanted tumor in nude mice; settings: for Inhibition Rate (%) / Tumor Weight: HT-29 nude mice; for Tumor Volume (mm3) (d30): d 30
Description: (§1) Then cell concentration was adjusted to 1×10^7/ml with matrigel, then each nude mouse was inoculated subcutaneously with 0.2 ml of cells at its right armpit and recorded as the first day of inoculation. When the tumor grows to be greater than or equal to 100 mm^3, the mice were randomly divided into 11 groups with 6 mice in each group: isovaleryl spiramycin I groups with doses of 25, 50 and 100 mg/kg, isovaleryl spiramycin II groups with doses of 25, 50 and 100 mg/kg, and isovaleryl spiramycin III groups with doses of 25, 50 and 100 mg/kg. Each group was continuously administered intragastrically for 30 days with a dose of 20 ml/kg. The mice were sacrificed the next day after drug withdrawal and the indicators were tested. The long diameter and short diameter of the tumor, and the body weight of each mouse were recorded every 3 days from drug administration to nude mouse sacrifice.
(§2) The body weight of the nude mice and the long diameter (a) and short diameter (b) of the transplanted tumor were measured every 3 days, and the tumor volume (v), relative tumor volume (RTV) and relative tumor proliferation rate (T/C) are calculated respectively according to the following formulas, wherein V=a×b^2/2; RTV=V/V0 (V0 is the tumor volume before administration, V is the tumor volume before sacrifice), and T/C (%)=treatment group RTV/model control group RTV×100%.
(§3) Each mouse was weighed and sacrificed. After the tumor was completely stripped off from the body of the mouse, the non-tumor tissues such as blood stains and fat were removed to weigh the tumor and calculate the tumor growth inhibition rate. The average tumor weight of each group of mice is used as an indicator of efficacy. Tumor growth inhibition rate (%)=(1−the average tumor weight of the treatment group/the average tumor weight of the model group)×100%.

[2] = test system: NK cell activity of spleen cells against K562 cells; test: Natural killer (NK) cell activity of Lewis lung cancer tumor-bearing mice; format: in vivo, C57BL/6 mouse
Description: In the Lewis lung cancer model, the mice inoculated with the tumor were randomly divided into groups with 10 mice in each group the next day of inoculation. The groups included: a model control group, a positive drug cyclophosphamide control group (CTX, 30 mg/kg), isovaleryl spiramycin I groups with doses of 13, 26 and 52 mg/kg; isovaleryl spiramycin II groups with doses of 13, 26 and 52 mg/kg; isovaleryl spiramycin III groups with doses of 13, 26 and 52 mg/kg. Each group was continuously administered intragastrically for 15 days with a dose of 20 ml/kg.
The serum-free RPMI 1640 medium was placed in a dish, and then the dish was placed on ice. The spleen was aseptically taken and gently ground with a sterile glass slide to prepare a single cell suspension. The single cell suspension was filtered with a double-layer sterile gauze, washed twice with serum-free RPMI1640 medium, and centrifuged at 1,500 rpm for 5 min to remove the obtained supernatant. 2 mL of red blood cell lysate was added to the treated suspension, the mixture was allowed to stand for 2 min, and then 8 mL of RPMI 1640 medium was added, centrifuging was performed at 1,500 rpm for 5 min to remove the obtained supernatant, and then washing was performed twice with the RPMI 1640 medium. […] A single cell suspension was prepared by using a RPMI 1640 medium containing 10% fetal bovine serum.
The spleen cell suspension was taken, and the cell density was adjusted to 1×10^7/mL (effector cells). A suspension of K562 cells was prepared with a cell density of 1×10^5/mL (target cells). Each mouse was set with: A. effector cells:target cell well (quantity ratio 20:1) to which […] of spleen cell suspension and 100 μL of K562 cell suspension were added; B. an effector cell control well to which 100 μL of spleen cell suspension and 100 μL of RPMI 1640 medium were added; and C. a target cell control well to which 100 μL of K562 cell suspension and 100 μL of RPMI 1640 medium were added. The above cells were added to a 96-well plate. After the 96-well plate was transferred to a saturated humidity condition with a volume fraction of 5% CO2 at 37° C. for incubation for 22 h, 10 μL of MTT solution (5 g/L) was added to each well, and incubation was continued to be performed for 4 hours under the same conditions, then the culture was terminated. 100 μl of a triple solution (SDS 10 g, 10M HCl 0.1 mL, isobutanol 5 mL, diluted with distilled water to 100 mL) was added, and the plate was shaken for 10 min to fully dissolve the crystals, and the Optical Density (OD) of each well at 490 nm was measured, and the NK cell activity was calculated. NK cell activity (%)=[TO−(S−E)]/TO×100%, wherein TO is the Optical Density of the target cell control well, S is the Optical Density of the effector cell control well, and E is the Optical Density of the effector cell.

[3] = test system: transplanted tumor of human bladder cancer cell T-24; test: T-24 transplanted tumor in nude mice; settings: for Tumor Volume (mm3) (d30): d 30
Description: as §1, §2, §3

[4] = HT-29, high dose (100 mg/kg in method) i.g. 30 days
[5] = HT-29, low dose (25 mg/kg in method) i.g. 30 days
[6] = HT-29, medium dose (50 mg/kg in method) i.g. 30 days
[7] = T-24, high dose (100 mg/kg in method) i.g. 30 days
[8] = T-24, low dose (25 mg/kg in method) i.g. 30 days
[9] = T-24, medium dose (50 mg/kg in method) i.g. 30 days

- mouse weight compared with the model group ([1]; mouse, in vivo): no significant changes
- mouse weight compared with the model group ([3]; mouse, in vivo): no significant changes
Compound: COC1C(OC(C)=O)CC(=O)OC(C)CC=CC=CC(OC2CCC(N(C)C)C(C)O2)C(C)CC(CC=O)C1OC1OC(C)C(OC2CC(C)(O)C(OC(=O)CC(C)C)C(C)O2)C(N(C)C)C1O (centres unmarked) [Isovaleryl spiramycin II, isovaleryl spiramycin II]
- Relative Tumor Proliferation Rate (T/C) [1, 4]: 44.05%
- tumor growth inhibition rate [1, 4]: 55.74%
- Relative Tumor Proliferation Rate (T/C) [1, 5]: 84.18%
- tumor growth inhibition rate [1, 5]: 16.24%
- tumor volume and relative tumor volume compared with the model group ([1]; HT-29, low, medium and high doses, P<0.05): significantly lower
- Relative Tumor Proliferation Rate (T/C) [1, 6]: 79.34%
- tumor growth inhibition rate [1, 6]: 32.41%
- Inhibition Rate (%) ([1]; 25 mg/kg): 16.24%
- Tumor Weight ([1]; 25 mg/kg): 1.97 ± 0.34 g
- Inhibition Rate (%) ([1]; 50 mg/kg): 32.41%
- Tumor Weight ([1]; 50 mg/kg): 1.59 ± 0.49 g
- Inhibition Rate (%) ([1]; 100 mg/kg): 55.74%
- Tumor Weight ([1]; 100 mg/kg): 1.04 ± 0.40 g
- Relative Tumor Proliferation Rate (T/C) ([1]; dose 25 mg/kg): 84.18%
- Relative Tumor Volume (RTV) ([1]; dose 25 mg/kg): 12.13 ± 3.40
- Tumor Volume (mm3) (d 1) ([1]; dose 25 mg/kg): 163.26 ± 38.80 mm3
- Tumor Volume (mm3) (d30) ([1]; dose 25 mg/kg): 1885.85 ± 219.49 mm3
- Relative Tumor Proliferation Rate (T/C) ([1]; dose 50 mg/kg): 79.34%
- Relative Tumor Volume (RTV) ([1]; dose 50 mg/kg): 11.43 ± 5.13
- Tumor Volume (mm3) (d 1) ([1]; dose 50 mg/kg): 142.56 ± 22.44 mm3
- Tumor Volume (mm3) (d30) ([1]; dose 50 mg/kg): 1568.80 ± 603.77 mm3
- Relative Tumor Proliferation Rate (T/C) ([1]; dose 100 mg/kg): 44.05%
- Relative Tumor Volume (RTV) ([1]; dose 100 mg/kg): 6.35 ± 2.87
- Tumor Volume (mm3) (d 1) ([1]; dose 100 mg/kg): 156.45 ± 37.20 mm3
- Tumor Volume (mm3) (d30) ([1]; dose 100 mg/kg): 921.49 ± 299.38 mm3
- Body Weight (g) (d1) ([1]; mouse, in vivo, 25 mg/kg): 21.04 ± 1.28 g
- Body Weight (g) (d30) ([1]; mouse, in vivo, 25 mg/kg): 20.88 ± 1.29 g
- Body Weight (g) (d1) ([1]; mouse, in vivo, 50 mg/kg): 21.36 ± 1.35 g
- Body Weight (g) (d30) ([1]; mouse, in vivo, 50 mg/kg): 20.9 ± 1.29 g
- Body Weight (g) (d1) ([1]; mouse, in vivo, 100 mg/kg): 20.80 ± 0.89 g
- Body Weight (g) (d30) ([1]; mouse, in vivo, 100 mg/kg): 21.53 ± 1.08 g
- NK Cell Activity ([2]; 13 mg/kg): 47.2 ± 9.2%
- NK Cell Activity ([2]; 26 mg/kg): 47.0 ± 5.5%
- NK Cell Activity ([2]; 52 mg/kg): 43.1 ± 7.3%
- NK cell activity compared with the control group ([2]; 13, 26 and 52 mg/kg, P<0.01): significantly increase
- Relative Tumor Proliferation Rate (T/C) [3, 7]: 46.70%
- tumor growth inhibition rate [3, 7]: 59.25%
- Relative Tumor Proliferation Rate (T/C) [3, 8]: 81.39%
- tumor growth inhibition rate [3, 8]: 15.57%
- tumor volume and relative tumor volume compared with the model group ([3]; T-24, low, medium and high doses, P<0.05): significantly lower
- Relative Tumor Proliferation Rate (T/C) [3, 9]: 64.89%
- tumor growth inhibition rate [3, 9]: 41.99%
- Inhibition Rate (%) ([3]; dose 25 mg/kg): 15.57%
- Relative Tumor Proliferation Rate (T/C) ([3]; dose 25 mg/kg): 81.39%
- Relative Tumor Volume (RTV) ([3]; dose 25 mg/kg): 10.75 ± 1.34
- Tumor Weight ([3]; dose 25 mg/kg): 1.58 ± 0.28 g
- Tumor Volume (mm3) (d 1) ([3]; dose 25 mg/kg): 132.64 ± 19.75 mm3
- Tumor Volume (mm3) (d30) ([3]; dose 25 mg/kg): 1414.36 ± 188.91 mm3
- Inhibition Rate (%) ([3]; dose 50 mg/kg): 41.99%
- Relative Tumor Proliferation Rate (T/C) ([3]; dose 50 mg/kg): 64.89%
- Relative Tumor Volume (RTV) ([3]; dose 50 mg/kg): 8.57 ± 1.31
- Tumor Weight ([3]; dose 50 mg/kg): 1.09 ± 0.42 g
- Tumor Volume (mm3) (d 1) ([3]; dose 50 mg/kg): 133.67 ± 5.07 mm3
- Tumor Volume (mm3) (d30) ([3]; dose 50 mg/kg): 1142.42 ± 146.91 mm3
- Inhibition Rate (%) ([3]; dose 100 mg/kg): 59.25%
- Relative Tumor Proliferation Rate (T/C) ([3]; dose 100 mg/kg): 46.70%
- Relative Tumor Volume (RTV) ([3]; dose 100 mg/kg): 6.17 ± 1.26
- Tumor Weight ([3]; dose 100 mg/kg): 0.76 ± 0.19 g
- Tumor Volume (mm3) (d 1) ([3]; dose 100 mg/kg): 133.57 ± 18.08 mm3
- Tumor Volume (mm3) (d30) ([3]; dose 100 mg/kg): 809.94 ± 131.43 mm3
- Body Weight (g) (d1) ([3]; mouse, in vivo, 25 mg/kg): 19.91 ± 0.28 g
- Body Weight (g) (d30) ([3]; mouse, in vivo, 25 mg/kg): 24.81 ± 2.42 g
- Body Weight (g) (d1) ([3]; mouse, in vivo, 50 mg/kg): 19.74 ± 0.82 g
- Body Weight (g) (d30) ([3]; mouse, in vivo, 50 mg/kg): 25.84 ± 0.73 g
- Body Weight (g) (d1) ([3]; mouse, in vivo, 100 mg/kg): 19.51 ± 0.50 g
- Body Weight (g) (d30) ([3]; mouse, in vivo, 100 mg/kg): 25.92 ± 1.35 g

Reference: patent publication US20200163984A1, “USE OF ISOVALERYL SPIRAMYCIN I, II AND/OR III IN MANUFACTURING MEDICAMENT FOR TREATING AND/OR PREVENTING TUMOR, AND MEDICAMENT” (SHENYANG FUYANG PHARMACEUTICAL TECHNOLOGY CO., LTD., priority 2017, published 2020)
